Test results: ChEMBL document CHEMBL1201862, “PubChem BioAssay data set” (2004)
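A five-concentration, 48-hour dose response in 96-well plates underlies each endpoint, interpolated linearly between surrounding concentrations. Here, GI50 denotes the concentration required for 50% inhibition of growth.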 Active and inactive are the calls of the source. No stated cut-off is given here; in the data, active = GI50 up to about 1.1 µM and inactive = higher.

What was measured:
Assay in all cases: DTP human tumour cell line panel, 48 h
[1] = system: UACC-257
[2] = system: MDA-MB-435
[3] = system: BT-549
[4] = system: CCRF-CEM
[5] = system: SK-OV-3
[6] = system: NCI-H460
[7] = system: COLO 205
[8] = system: SW-620
[9] = system: SNB-75
[10] = system: Malme-3M
[11] = system: HCT-116
[12] = system: EKVX
[13] = system: A498
[14] = system: LOX IMVI
[15] = system: U-251
[16] = system: CAKI-1
[17] = system: SK-MEL-5
[18] = system: SN12C
[19] = system: NCI-H522

| SMILES | GI50 [1] | GI50 [2] | GI50 [3] | GI50 [4] | GI50 [5] | GI50 [6] | GI50 [7] | GI50 [8] | GI50 [9] | GI50 [10] | GI50 [11] | GI50 [12] | GI50 [13] | GI50 [14] | GI50 [15] | GI50 [16] | GI50 [17] | GI50 [18] | GI50 [19] |
| --- | --- | --- | --- | --- | --- | --- | --- | --- | --- | --- | --- | --- | --- | --- | --- | --- | --- | --- | --- |
| O=[N+]([O-])c1cccnc1-n1cnc2ccccc21 | > 100 µM (inactive) | > 100 µM (inactive) | > 100 µM (inactive) | > 100 µM (inactive) | > 100 µM (inactive) | > 100 µM (inactive) | > 100 µM (inactive) | > 100 µM (inactive) | > 100 µM (inactive) | > 100 µM (inactive) | > 100 µM (inactive) | > 100 µM (inactive) | > 100 µM (inactive) | > 100 µM (inactive) | > 100 µM (inactive) | > 100 µM (inactive) | > 100 µM (inactive) | – | – |
| Nc1ccc2c(c1)Cc1ccccc1-2 | > 100 µM (inactive) | > 100 µM (inactive) | 48.2 µM (inactive) | 23.6 µM (inactive) | > 100 µM (inactive) | 69.8 µM (inactive) | > 100 µM (inactive) | > 100 µM (inactive) | 31.6 µM (inactive) | > 100 µM (inactive) | 81.5 µM (inactive) | 37.1 µM (inactive) | 49 µM (inactive) | 80.7 µM (inactive) | > 100 µM (inactive) | 88.3 µM (inactive) | 66.2 µM (inactive) | > 100 µM (inactive) | – |
| Cc1ccc(S(=O)(=O)CNC(=O)C(O)(O)C(F)(F)F)cc1 | > 100 µM (inactive) | > 100 µM (inactive) | > 100 µM (inactive) | > 100 µM (inactive) | > 100 µM (inactive) | > 100 µM (inactive) | > 100 µM (inactive) | > 100 µM (inactive) | – | > 100 µM (inactive) | > 100 µM (inactive) | > 100 µM (inactive) | > 100 µM (inactive) | > 100 µM (inactive) | > 100 µM (inactive) | > 100 µM (inactive) | > 100 µM (inactive) | > 100 µM (inactive) | > 100 µM (inactive) |
| CCN(CC)c1ccc2cc(-c3csc(-c4ccc(N(C)C)cc4)n3)c(=O)oc2c1 | > 100 µM (inactive) | > 100 µM (inactive) | > 100 µM (inactive) | > 100 µM (inactive) | > 100 µM (inactive) | > 100 µM (inactive) | > 100 µM (inactive) | > 100 µM (inactive) | 23.1 µM (inactive) | > 100 µM (inactive) | > 100 µM (inactive) | > 100 µM (inactive) | – | > 100 µM (inactive) | > 100 µM (inactive) | > 100 µM (inactive) | > 100 µM (inactive) | > 100 µM (inactive) | > 100 µM (inactive) |
| Clc1ccc(OCC2NC3C=CC32)cn1 (stereo not given) | > 100 µM (inactive) | > 100 µM (inactive) | > 100 µM (inactive) | 56.9 µM (inactive) | > 100 µM (inactive) | > 100 µM (inactive) | > 100 µM (inactive) | > 100 µM (inactive) | > 100 µM (inactive) | > 100 µM (inactive) | > 100 µM (inactive) | 24.9 µM (inactive) | – | > 100 µM (inactive) | > 100 µM (inactive) | > 100 µM (inactive) | > 100 µM (inactive) | > 100 µM (inactive) | > 100 µM (inactive) |
| S=C(Nc1ccc2c(c1)Cc1ccccc1-2)Nc1ccc2c(c1)Cc1ccccc1-2 | > 100 µM (inactive) | > 100 µM (inactive) | > 100 µM (inactive) | 11.4 µM (inactive) | > 100 µM (inactive) | > 100 µM (inactive) | > 100 µM (inactive) | > 100 µM (inactive) | – | > 100 µM (inactive) | > 100 µM (inactive) | > 100 µM (inactive) | > 100 µM (inactive) | > 100 µM (inactive) | > 100 µM (inactive) | > 100 µM (inactive) | > 100 µM (inactive) | > 100 µM (inactive) | > 100 µM (inactive) |
| O=c1nc(N2CCN(c3ccccc3)CC2)ccn1C1OC(CO)C(O)C1O (stereo not given) | 45.1 µM (inactive) | 32.2 µM (inactive) | 53.2 µM (inactive) | 35.6 µM (inactive) | > 100 µM (inactive) | > 100 µM (inactive) | 97.3 µM (inactive) | 82 µM (inactive) | – | > 100 µM (inactive) | 56 µM (inactive) | 61.2 µM (inactive) | > 100 µM (inactive) | 94.2 µM (inactive) | 52.2 µM (inactive) | > 100 µM (inactive) | 42.6 µM (inactive) | > 100 µM (inactive) | 52.8 µM (inactive) |
| COc1cc([N+](=O)[O-])c(S(=O)(=O)O)cc1-n1nc(C(=O)Nc2ccccc2)n[n+]1-c1cc(S(=O)(=O)[O-])c([N+](=O)[O-])cc1OC | > 100 µM (inactive) | 85.5 µM (inactive) | > 100 µM (inactive) | > 100 µM (inactive) | > 100 µM (inactive) | > 100 µM (inactive) | > 100 µM (inactive) | > 100 µM (inactive) | > 100 µM (inactive) | > 100 µM (inactive) | > 100 µM (inactive) | > 100 µM (inactive) | – | 9.84 µM (inactive) | 97.7 µM (inactive) | > 100 µM (inactive) | > 100 µM (inactive) | > 100 µM (inactive) | > 100 µM (inactive) |
| CN(Cc1c[n+]([O-])c2nc(N)nc(N)c2n1)c1ccc(C(=O)NC23CC4CC(CC(C4)C2)C3)cc1 | > 100 µM (inactive) | 77.4 µM (inactive) | 28.2 µM (inactive) | 28.6 µM (inactive) | > 100 µM (inactive) | > 100 µM (inactive) | > 100 µM (inactive) | > 100 µM (inactive) | 20.2 µM (inactive) | 78.2 µM (inactive) | > 100 µM (inactive) | > 100 µM (inactive) | 13.5 µM (inactive) | > 100 µM (inactive) | 34.5 µM (inactive) | > 100 µM (inactive) | 34.7 µM (inactive) | > 100 µM (inactive) | – |
| C1CSC2=C(S1)SC1=C(S2)SC(=C2SC3=C(SC4=C(SCCS4)S3)S2)S1 | > 100 µM (inactive) | > 100 µM (inactive) | > 100 µM (inactive) | > 100 µM (inactive) | > 100 µM (inactive) | > 100 µM (inactive) | > 100 µM (inactive) | > 100 µM (inactive) | 37.7 µM (inactive) | > 100 µM (inactive) | > 100 µM (inactive) | > 100 µM (inactive) | > 100 µM (inactive) | – | > 100 µM (inactive) | > 100 µM (inactive) | > 100 µM (inactive) | > 100 µM (inactive) | > 100 µM (inactive) |
| O=C(Cc1ccc(Cl)c(Cl)c1)NCC1(N2CCCCC2)CCCCC1 | 17.8 µM (inactive) | 46.3 µM (inactive) | 55.5 µM (inactive) | 51.3 µM (inactive) | > 100 µM (inactive) | 36.8 µM (inactive) | – | 54.6 µM (inactive) | – | 21.3 µM (inactive) | 40.6 µM (inactive) | 59.8 µM (inactive) | 60.7 µM (inactive) | 36.6 µM (inactive) | 69.3 µM (inactive) | > 100 µM (inactive) | – | 66.8 µM (inactive) | 38 µM (inactive) |
| N#CC1(C#N)C2CCCCC23OC(=N)C1(C#N)C(c1ccccc1)O3 (stereo not given) | 18 µM (inactive) | 25.6 µM (inactive) | 16.8 µM (inactive) | 5.24 µM (inactive) | > 100 µM (inactive) | 19 µM (inactive) | 13.4 µM (inactive) | 14.8 µM (inactive) | 0.213 µM (active) | 17 µM (inactive) | 17 µM (inactive) | 23.5 µM (inactive) | 17.8 µM (inactive) | 17.3 µM (inactive) | 17.6 µM (inactive) | 10.8 µM (inactive) | 16.1 µM (inactive) | 13.1 µM (inactive) | – |
| O=S(=O)(O)c1cc(S(=O)(=O)O)c2c(/N=N/c3ccc(S(=O)(=O)O)c4ccccc34)c(O)ccc2c1 | > 100 µM (inactive) | > 100 µM (inactive) | > 100 µM (inactive) | > 100 µM (inactive) | > 100 µM (inactive) | – | > 100 µM (inactive) | > 100 µM (inactive) | > 100 µM (inactive) | 21.9 µM (inactive) | > 100 µM (inactive) | > 100 µM (inactive) | – | > 100 µM (inactive) | > 100 µM (inactive) | > 100 µM (inactive) | > 100 µM (inactive) | > 100 µM (inactive) | > 100 µM (inactive) |
| COc1ccc(-n2cnc3c(NC(Cc4ccccc4)C(=O)O)ncnc32)cc1 (stereo not given) | > 100 µM (inactive) | > 100 µM (inactive) | > 100 µM (inactive) | > 100 µM (inactive) | > 100 µM (inactive) | > 100 µM (inactive) | > 100 µM (inactive) | > 100 µM (inactive) | > 100 µM (inactive) | – | > 100 µM (inactive) | > 100 µM (inactive) | > 100 µM (inactive) | > 100 µM (inactive) | > 100 µM (inactive) | > 100 µM (inactive) | > 100 µM (inactive) | > 100 µM (inactive) | – |
| NNS(=O)(=O)c1cc(C(=O)O)cc(C(=O)O)c1 | > 100 µM (inactive) | > 100 µM (inactive) | > 100 µM (inactive) | 28.5 µM (inactive) | > 100 µM (inactive) | > 100 µM (inactive) | > 100 µM (inactive) | > 100 µM (inactive) | – | > 100 µM (inactive) | > 100 µM (inactive) | > 100 µM (inactive) | > 100 µM (inactive) | > 100 µM (inactive) | > 100 µM (inactive) | > 100 µM (inactive) | > 100 µM (inactive) | > 100 µM (inactive) | > 100 µM (inactive) |
